Measurements reported in patent US20140288040A1, “SUBSTITUTED BENZYLAMINE COMPOUNDS, THEIR USE IN MEDICINE, AND IN PARTICULAR THE TREATMENT OF HEPATITIS C VIRUS (HCV) INFECTION” (ASTEX THERAPEUTICS LIMITED, priority 2011, published 2014).
Structures can show the parent of a compound that is named as a salt. Where two headings read alike, the source gives them in different places.

Key:
[1] = target: T1, HCV NS3 protease (full length NS34a) (Hepatitis C virus genotype 1b, UniProt P26663); experiment: HCV NS3 protease assay (FRET, full length NS34a); format: biochemical
T1 construct: The protease activity of the full length NS34a was measured using a FRET-based assay; made in house
T1 sequence (P26663 1658-1711): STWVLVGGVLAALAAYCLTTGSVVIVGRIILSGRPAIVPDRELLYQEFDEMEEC
T1 sequence (P26663 1027-1657): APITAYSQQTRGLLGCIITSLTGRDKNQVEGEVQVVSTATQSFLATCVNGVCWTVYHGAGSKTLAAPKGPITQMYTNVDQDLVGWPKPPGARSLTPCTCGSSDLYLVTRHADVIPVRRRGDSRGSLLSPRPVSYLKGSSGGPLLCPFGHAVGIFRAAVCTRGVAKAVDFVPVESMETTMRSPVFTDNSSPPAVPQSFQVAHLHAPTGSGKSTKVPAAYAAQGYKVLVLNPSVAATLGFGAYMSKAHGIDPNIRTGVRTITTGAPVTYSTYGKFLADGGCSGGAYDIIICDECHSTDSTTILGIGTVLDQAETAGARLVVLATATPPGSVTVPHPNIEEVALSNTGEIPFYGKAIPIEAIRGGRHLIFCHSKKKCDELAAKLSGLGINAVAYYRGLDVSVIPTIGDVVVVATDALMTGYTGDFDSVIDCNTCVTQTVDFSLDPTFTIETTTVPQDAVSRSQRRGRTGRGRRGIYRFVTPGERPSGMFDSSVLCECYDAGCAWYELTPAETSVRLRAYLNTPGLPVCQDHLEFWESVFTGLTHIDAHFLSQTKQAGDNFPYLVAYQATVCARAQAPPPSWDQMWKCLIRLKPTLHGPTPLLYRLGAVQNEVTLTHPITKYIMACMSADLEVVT
In short: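 Full-length NS34a incubated with compound and an NS4AB cleavage-site FRET peptide (QXL520 quencher, 5-FAMsp fluorophore) in 50 mM Tris pH8, 20 mM DTT, 1% CHAPS, 10% glycerol, 5% DMSO. Fluorescence followed for 30 minutes at room temperature; IC50 from initial rates of replicate progress curves.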

[2] = system: HCV subgenomic replicon in Huh-7 cells; experiment: Replicon assay, EC50 luciferase readout; format: cell-based, hepatitis C virus (HCV); settings: Hepatitis C virus, Huh-7, 72 h, single value, or second value of a pair x:y
Procedure: The activities of compounds of the invention against HCV in a cellular environment were analysed using a replicon assay as described below.
Thus, Huh-7 cells persistently infected with an HCV-RNA construct (Bartenschlager, R. Hepatitis C replicons: potential role for drug development. Nature Rev. Drug Discov. 1, 911-916 (2002)) comprising: 5′ and 3′ non-translated regions (NTR); the non-structural genes NS3 to NS5b; as well as the G418 drug resistance gene, neomycin, (for selection of cells carrying HCV replicon RNA) fused to the firefly Luciferase reporter gene (pFK13889luc-ubi-neoNS3-3′ET), were used to determine the cell based antiviral activity of compounds using luciferase activity as an indirect readout of HCV RNA load. In this assay […] huh-7 cells persistently infected with the HCV subgenomic replicon construct above were platedwell in a 96 well tissue culture plate. The cells were allowed to attach overnight in DMEM medium supplemented with 10% FBS 1% NEAA, and 250 μgml gentamicin. The following day the medium was replaced with 200 μlwell of fresh medium as described above lacking gentamicin. […] Plates were then incubated at 37° C. in an atmosphere of 5% CO2 and air for 72 h. […] The plate was then read at 535 nm (excitation) and 590 nm (emission) on a SpectraMax Gemini reader (Molecular Devices) to determine the number of viable cells by measuring the conversion of rezasurin (Alamar blue) to resorufin in response to mitochondrial activity. In order to determine the antiviral effect of these compounds EC50 values were determined by measuring the luciferase activity of the cells. Alamar blue solution was removed from the wells and replaced with 100 μlwell of medium along with 100 μlwell of Bright-Glo reagent and incubated at room temperature for 5 minutes before transferring 100 μlwell to a white bottom 96 well plate to read in a luminometer as described in the Bright-Glo Luciferase Assay System protocol (promega).

[3] = protease activity of full length NS34a, FRET peptide substrate, read-out: Activity IC50
[4] = Huh-7 replicon cells, 72 h, read-out: Activity EC50 (μM) (EC50 luciferase readout)
[5] = IC50 values of 10-150 μM against the protease activity of the full length NS34a, or at least 40% inhibition of protease activity at a concentration of 100 μM

Row | SMILES | IC50 [1, 3] | EC50 [2, 4] | IC50 [1, 5] | EC50 ([2]; read-out: Activity EC50 (μM) (EC50 luciferase readout), Huh-7 replicon cells, 72 h)
1 | N[C@H]1CC[C@@H](NCc2ccc(F)c(Oc3ccccc3)c2F)CC1 [Example 283] | 750 nM | 0.27 µM |  | 
2 | CC[C@@H](N[C@@H](C)CC(N)=O)c1ccc(Cl)c(Oc2ccc(-c3cnco3)cc2)c1F [Example 219] | 220 nM | 0.32 µM |  | 
3 | CC[C@@H](N[C@@H](C)CC(=O)NCCNCc1ccccc1)c1ccc(Cl)c(Oc2ccccc2)c1F [Example 265] | 1100 nM | 0.47 µM |  | 
4 | NC(c1ccc(F)c(Oc2ccccc2)c1F)C1CCNCC1 (stereo not drawn) [Example 14, C-(2,4-Difluoro-3-phenoxy-phenyl)-C-piperidin-4-yl-methylamine. dihydrochloride] | 1700 nM | 2 µM |  | 
5 | CCNCCNC(=O)C[C@H](C)N[C@H](CC)c1ccc(Cl)c(Oc2ccccc2)c1F [Example 316] | 400 nM | > 10 µM |  | 
6 | CCC(NC(C)CC(=O)NC)c1ccc(F)c(Oc2ccccc2)c1F (stereo not drawn) [Example 49] | 3200 nM | > 30 µM |  | 
7 | CC[C@H](NCCC(=O)NCCO)c1ccc(F)c(Oc2ccccc2)c1F [Example 92, 3-[(S)-1-(2,4-Difluoro-3-phenoxy-phenyl)-propylamino]-N-(2-hydroxy-ethyl)-propionamide.hydrochloride] | 910 nM | > 30 µM |  | 
8 | OCCN[C@@H](CC1CCNCC1)c1ccc(F)c(Oc2ccccc2)c1F [Example 101] | 1300 nM | 0.23 µM |  | 
9 | CC[C@@H](N[C@@H](C)CC(N)=O)c1ccc(Cl)c(Oc2ccc(C#N)c(F)c2)c1F [Example 213] | 130 nM | 5.2 µM |  | 
10 | C[C@H](CO)N[C@@H](CC1CCNCC1)c1ccc(F)c(Oc2ccccc2)c1F [Example 95B, (R)-2-[(S)-1-(2,4-Difluoro-3-phenoxy-phenyl)-2-piperidin-4-yl-ethylamino]-propan-1-ol.dihydrochloride] | 410 nM | 0.16 µM |  | 
11 | CC[C@@H](N[C@@H](C)CC(N)=O)c1ccc(Cl)c(Oc2ccc([N+](=O)[O-])cc2)c1F [Example 201] | 200 nM | > 10 µM |  | 
12 | CC[C@H](NCCC(=O)NCC#N)c1ccc(F)c(Oc2ccccc2)c1F [Example 91, N-Cyanomethyl-3-[(S)-1-(2,4-difluoro-3-phenoxy-phenyl)-propylamino]-propionamide.hydrochloride] | 2400 nM | > 10 µM |  | 
13 | CC[C@@H](N[C@@H](C)CC(=O)NCC(N)=O)c1ccc(Cl)c(Oc2ccccc2)c1F [Example 178] | 2200 nM | 8 µM |  | 
14 | N[C@H](c1ccc(F)c(Oc2ccccc2)c1F)[C@@H]1CCCNC1 [Example 59B, C-(2,4-Difluoro-3-phenoxy-phenyl)-C-piperidin-3-yl-methylamine. dihydrochloride] | 2100 nM | 3 µM |  | 
15 | N[C@H](CC1CCNCC1)c1ccc(F)c(Oc2ccccc2)c1F [Example 82] | 1900 nM | 0.79 µM |  | 
16 | C[C@H](CC(N)=O)N[C@H](CC1CCNCC1)c1ccc(F)c(Oc2ccccc2)c1F [Example 85] |  | 18 µM | 10000 to 150000 nM | 
17 | NC(CC1CCNCC1)c1ccc(F)c(Oc2ccccc2)c1F (stereo not drawn) [Example 72B, 1-(2,4-Difluoro-3-phenoxy-phenyl)-2-piperidin-4-yl-ethylamine. dihydrochloride] | 700 nM | 0.26 µM |  | 
18 | N[C@@H](CC1CCNCC1)c1ccc(F)c(Oc2ccccc2)c1F [Example 93] | 790 nM | 1.8 µM |  | 
19 | NC(c1ccc(=O)[nH]c1)c1ccc(F)c(Oc2ccccc2)c1F (stereo not drawn) [Example 73, 5-[Amino-(2,4-difluoro-3-phenoxy-phenyl)-methyl]-1H-pyridin-2-one] |  | > 30 µM | 10000 to 150000 nM | 
20 | CC[C@@H](N[C@@H](C)CC(N)=O)c1ccc(Cl)c(Oc2ccc(N)c(C(F)(F)F)c2)c1F [Example 260] | 170 nM | 0.043 µM |  | 
21 | CC(CO)NC(c1ccc(F)c(Oc2ccccc2)c1F)C1CCNCC1 (single isomer, unassigned) [Example 75, 2-{[(2,4-Difluoro-3-phenoxy-phenyl)-piperidin-4-yl-methyl]-amino}-propan-1-ol.dihydrochloride] | 3300 nM | 4.8 µM |  | 

Row | SMILES | IC50 [1, 3] | EC50 [2, 4] | IC50 [1, 5] | EC50 ([2]; read-out: Activity EC50 (μM) (EC50 luciferase readout), Huh-7 replicon cells, 72 h)
22 | CC[C@@H](N[C@@H](C)CC(N)=O)c1ccc(Cl)c(Oc2ccc(CC#N)cc2)c1F [Example 211] | 72 nM |  |  | 0.066 µM
23 | Cc1ccc(CN[C@H]2CC[C@H](N)CC2)c(F)c1Oc1ccccc1 [Example 272, trans-N-(2-Fluoro-4-methyl-3-phenoxy-benzyl)-cyclohexane-1,4-diamine.dihydrochloride] | 880 nM | 5.3 µM |  | 
24 | CC[C@@H](N[C@@H](C)CC(N)=O)c1ccc(Cl)c(Oc2ccc3c(c2)OCC3)c1F [Example 233] | 110 nM | 0.079 µM |  | 
25 | CC[C@@H](N[C@@H](C)CC(N)=O)c1ccc(Cl)c(Oc2ccc(C#N)nc2)c1F [Example 246] | 170 nM | > 10 µM |  | 
26 | CCC(N[C@H]1CC[C@H](N)CC1)c1ccc(F)c(Oc2ccccc2)c1F (stereo partly drawn) [Example 5, Trans-N-[1′-(2,4-difluoro-3-phenoxy-phenyl)-propyl]-cyclohexane-1,4-diamine] | 2000 nM | 0.13 µM |  | 
27 | N[C@H]1CC[C@H](NCc2ccc(F)c(Oc3ccccc3)c2F)CC1 [Example 282] | 730 nM | 0.37 µM |  | 
28 | CC[C@@H](N[C@@H](C)CC(=O)NC1CCNCC1)c1ccc(Cl)c(Oc2ccccc2)c1F [Example 264] | 4600 nM | 0.6 µM |  | 
29 | CCN(Cc1ccc(Cl)c(Oc2ccccc2)c1F)[C@H]1CC[C@H](N)CC1 [Example 273B, trans-N-(4-Chloro-2-fluoro-3-phenoxy-benzyl)-N-ethyl-cyclohexane-1,4-diamine.dihydrochloride] | 2300 nM | 0.76 µM |  | 
30 | N[C@H]1CC[C@@H](NCc2cccc(Oc3ccccc3)c2)CC1 [Example 281] | 10000 nM | 0.79 µM |  | 
31 | CCC(NC(C)CC(N)=O)c1ccc(F)c(Oc2ccccc2)c1F (stereo not drawn) [Example 66] | 750 nM | > 30 µM |  | 
32 | CC[C@@H](N[C@@H](C)CC(=O)N[C@@H](C)CN)c1ccc(Cl)c(Oc2ccccc2)c1F [Example 251] | 61 nM | 1.8 µM |  | 
33 | C[C@@H](CO)N[C@H](CC1CCNCC1)c1ccc(F)c(Oc2ccccc2)c1F [Example 89] | 3900 nM | 1.8 µM |  | 
34 | CC[C@@H](N[C@@H](C)CC(N)=O)c1ccc(Cl)c(Oc2ccc(C)nc2)c1F [Example 313] | 150 nM | > 10 µM |  | 
35 | CC[C@@H](N[C@@H](C)CC(N)=O)c1ccc(Cl)c(Oc2ccc(C(N)=O)nc2)c1F [Example 249] | 380 nM | 4.6 µM |  | 
36 | N[C@H](c1ccc(F)c(Oc2ccccc2)c1F)[C@H]1CCOC1 (relative stereo) [Example 61, C-(2,4-Difluoro-3-phenoxy-phenyl)-C-(tetrahydrofuran-3-yl)-methylamine.hydrochloride] |  | > 30 µM | 10000 to 150000 nM | 
37 | CC[C@H](N[C@@H](C)CO)c1ccc(F)c(Oc2ccccc2)c1F [Example 64] | 430 nM | 18 µM |  | 
38 | CC[C@@H](N[C@@H](C)CC(N)=O)c1ccc(Cl)c(Oc2ccc(C#N)c(C)c2)c1F [Example 237] | 87 nM | 0.031 µM |  | 
39 | CC[C@@H](Nc1ncc(CN)cn1)c1ccc(Cl)c(Oc2ccccc2)c1F [Example 8, (5-Aminomethyl-pyrimidin-2-yl)-[(R)-1-(4-chloro-2-fluoro-3-phenoxy-phenyl)-propyl]-amine hydrochloride] | 330 nM | 10 µM |  | 
40 | CC[C@H](NCCO)c1ccc(F)c(Oc2ccccc2)c1F [Example 100, 2-[(S)-1-(2,4-Difluoro-3-phenoxy-phenyl)-propylamino]-ethanol.trifluoroacetate] | 1100 nM | > 18 µM |  | 
41 | CC[C@@H](N[C@H](C)c1cc[nH]c1)c1ccc(Cl)c(Oc2ccccc2)c1F [Example 163, [(R)-1-(4-Chloro-2-fluoro-3-phenoxy-phenyl)-propyl]-1-[(R)-1-(1H-pyrrol-3-yl)-ethyl]-amine.dihydrochloride] | 2500 nM | 0.94 µM |  | 
42 | CC[C@@H](N[C@H](C)CC(=O)NCCN(C)C)c1ccc(Cl)c(Oc2ccccc2)c1F [Example 242] | 3900 nM | 0.89 µM |  | 
